Assay results: US20130065818A1, “Arylamide Compounds And Compositions And Uses Thereof” (POLYMEDIX, priority 2006, published 2013)
Converted amounts (≈) assume the structure as drawn. Read-outs that look alike come from different tables or passages of the source.

Assays:
[1] = test system: Staphylococcus epidermidis (Coagulase-negative Staphylococcus) fluoroquinolone-resistant; assay: MIC, 25 ocular isolates, broth microdilution (Example 8); format: cell-based
How it was run: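 Broth microdilution in Mueller-Hinton broth, polypropylene plates, inoculum from 0.5 McFarland suspension diluted 0.05 ml into 5 ml; final test agent 64–0.0625 μg/ml (128–0.125 μg/ml for P. aeruginosa) in 0.01% acetic acid, 0.2% BSA diluent. Incubated 37° C overnight; MIC read visually as lowest concentration inhibiting visible growth.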

[2] = test system: Streptococcus viridans group; assay: as above; format: cell-based
Protocol: Mueller-Hinton Broth supplemented with 2% lysed horse blood in tubes was inoculated with 25 ocular isolates of Streptococcus pneumoniae, Streptococcus viridans group, and Moraxella species (including Moraxella catarrhalis) plus two controls (Staphylococcus aureus and E. coli) and incubated at 37° C. overnight. Additionally, Mueller-Hinton Broth in tubes was inoculated with two controls (Staphylococcus aureus and E. coli) and incubated at 37° C. overnight on a shaker set at 250 rpm.
On the day of testing, a 640 μg/ml (1280 μg/ml for Serratia marcescens and Pseudomonas aeruginosa) concentration was prepared from a 1% stock solution in 0.01% acetic acid, 0.2% BSA in polypropylene tubes.
Serial doubling dilutions in 0.01% acetic acid, 0.2% BSA in 96 well polypropylene plates, which are used as reservoirs for the inoculation of the test plates, were carried out to obtain serial dilutions of test agents at 10 times the required test concentrations: 640, 320, 160, 80, 40, 20, 10, 5, 2.5, 1.25, and 0.625 μg/ml (1280, 640, 320, 160, 80, 40, 20, 10, 5, 2.5, and 1.25 μg/ml for Serratia marcescens and Pseudomonas aeruginosa).
Ten μl of diluted 10×test agents was added to each well of one row of the 96 well polypropylene plates from column 2 to column 12 (column 1 is a control for bacteria alone, with no peptide). Test agent concentrations in columns 2-12 were as follows: 64, 32, 16, 8, 4, 2, 1, 0.5, 0.25, 0.125, and 0.0625 μg/ml (128, 64, 32, 16, 8, 4, 2, 1, 0.5, 0.25, and 0.125 μg/ml for Serratia marcescens and Pseudomonas aeruginosa). The same peptide was in each of the 8 rows. One plate contained dilutions of one test agent and 8 bacterial isolates.
On the day of testing, the overnight bacterial broth cultures of Streptococcus pneumoniae, Streptococcus viridans and Moraxella species (including Moraxella catarrhalis) plus two controls (Staphylococcus aureus and E. coli) were diluted in 5 ml of trypticase soy broth to yield turbidity equal to a 0.5 McFarland standard. The final inoculum for MIC testing for Streptococcus pneumoniae, Streptococcus viridans and Moraxella species (including Moraxella catarrhalis) was achieved by placing 0.1 ml of the turbidity adjusted sample to 5 ml of Mueller-Hinton broth containing 2% lysed horse red blood cells.
Ninety μl of the bacterial suspensions was dispensed in each well from column 1 to column 12. Each bacterial isolate was placed in one row of a 96 well polypropylene plate containing the test agents. The plates were placed on shaker at 15 minutes at room temperature, and then incubated at 37° C. overnight. MICs were determined visually as the lowest concentration of drug that inhibits visible bacterial growth.

Structure (SMILES): N=C(N)NCCCCC(=O)Nc1cc(C(F)(F)F)cc(NC(=O)c2cnc(C(=O)Nc3cc(C(F)(F)F)cc(NC(=O)CCCCNC(=N)N)c3SCCN)cn2)c1SCCN [Oligomer 5]
- MIC50 ([1]; 25 isolates, Row 13): 0.125 µg/mL (≈ 0.136 µM)
- MIC90 ([1]; 25 isolates, Row 22): 0.25 µg/mL (≈ 0.273 µM)
- Range of MICs ([1]; 25 isolates, Summary of Results, <0.0625 was Replaced with 0.03125): 0.03125 to 0.5 µg/mL
- MIC ([1]; Staphylococcus epidermidis, 25 ocular isolates, read-out: Median MIC): ≤ 0.25 µg/mL
- MIC ([1]; Staphylococcus epidermidis, isolate 1—E515, read-out: MIC): 0.125 µg/mL (≈ 0.136 µM)
- MIC ([1]; Staphylococcus epidermidis, isolate 2—E514, read-out: MIC): 0.125 µg/mL (≈ 0.136 µM)
- MIC ([1]; Staphylococcus epidermidis, isolate 3—E513, read-out: MIC): 0.125 µg/mL (≈ 0.136 µM)
- MIC ([1]; Staphylococcus epidermidis, isolate 4—E510, read-out: MIC): 0.125 µg/mL (≈ 0.136 µM)
- MIC ([1]; Staphylococcus epidermidis, isolate 5—E509, read-out: MIC): 0.125 µg/mL (≈ 0.136 µM)
- MIC ([1]; Staphylococcus epidermidis, isolate 6—E508, read-out: MIC): 0.125 µg/mL (≈ 0.136 µM)
- MIC ([1]; Staphylococcus epidermidis, isolate 7—E505, read-out: MIC): 0.125 µg/mL (≈ 0.136 µM)
- MIC ([1]; Staphylococcus epidermidis, isolate 8—E503, read-out: MIC): 0.125 µg/mL (≈ 0.136 µM)
- MIC ([1]; Staphylococcus epidermidis, isolate 9—E502, read-out: MIC): 0.25 µg/mL (≈ 0.273 µM)
- MIC ([1]; Staphylococcus epidermidis, isolate 10—E499, read-out: MIC): 0.25 µg/mL (≈ 0.273 µM)
- MIC ([1]; Staphylococcus epidermidis, isolate 11—E498, read-out: MIC): 0.125 µg/mL (≈ 0.136 µM)
- MIC ([1]; Staphylococcus epidermidis, isolate 12—E494, read-out: MIC): 0.125 µg/mL (≈ 0.136 µM)
- MIC ([1]; Staphylococcus epidermidis, isolate 13—E493, read-out: MIC): 0.125 µg/mL (≈ 0.136 µM)
- MIC ([1]; Staphylococcus epidermidis, isolate 14—E485, read-out: MIC): 0.125 µg/mL (≈ 0.136 µM)
- MIC ([1]; Staphylococcus epidermidis, isolate 15—E487, read-out: MIC): < 0.0625 µg/mL
- MIC ([1]; Staphylococcus epidermidis, isolate 16—E486, read-out: MIC): 0.125 µg/mL (≈ 0.136 µM)
- MIC ([1]; Staphylococcus epidermidis, isolate 17—E480, read-out: MIC): 0.125 µg/mL (≈ 0.136 µM)
- MIC ([1]; Staphylococcus epidermidis, isolate 18—E475, read-out: MIC): 0.125 µg/mL (≈ 0.136 µM)
- MIC ([1]; Staphylococcus epidermidis, isolate 19—E471, read-out: MIC): 0.125 µg/mL (≈ 0.136 µM)
- MIC ([1]; Staphylococcus epidermidis, isolate 20—E458, read-out: MIC): 0.125 µg/mL (≈ 0.136 µM)
- MIC ([1]; Staphylococcus epidermidis, isolate 21—E452, read-out: MIC): 0.5 µg/mL (≈ 0.545 µM)
- MIC ([1]; Staphylococcus epidermidis, isolate 22—E450, read-out: MIC): 0.125 µg/mL (≈ 0.136 µM)
- MIC ([1]; Staphylococcus epidermidis, isolate 23—E440, read-out: MIC): 0.125 µg/mL (≈ 0.136 µM)
- MIC ([1]; Staphylococcus epidermidis, isolate 24—E446, read-out: MIC): < 0.0625 µg/mL
- MIC ([1]; Staphylococcus epidermidis, isolate 25—E444, read-out: MIC): 0.25 µg/mL (≈ 0.273 µM)
- MIC ([1]; Staphylococcus epidermidis, n=25 per group, read-out: Median MIC): 0.125 µg/mL (≈ 0.136 µM)
- MIC50 ([1]; Staphylococcus epidermidis, 25 isolates, Summary of Results, read-out: MIC50): 0.125 µg/mL (≈ 0.136 µM)
- MIC90 ([1]; Staphylococcus epidermidis, 25 isolates, Summary of Results, read-out: MIC90): 0.25 µg/mL (≈ 0.273 µM)
- MIC ([1]; Staphylococcus epidermidis, 25 isolates, Summary of Results, read-out: Median MIC): 0.125 µg/mL (≈ 0.136 µM)
- MIC50 ([1]; n=25 per group): 0.125 µg/mL (≈ 0.136 µM)
- MIC90 ([1]; n=25 per group): 0.25 µg/mL (≈ 0.273 µM)
- Range of MICs ([1]; n=25 per group): 0.03125 to 0.5 µg/mL
- MIC50 ([2]; 25 isolates, Row 13): 16 µg/mL (≈ 17.4 µM)
- MIC90 ([2]; 25 isolates, Row 22, >64 was Replaced with 128): 128 µg/mL (≈ 140 µM)
- Range of MICs ([2]; 25 isolates, Summary of Results, >64 was Replaced with 128): 0.5 to 128 µg/mL
- MIC ([2]; Streptococcus viridans, 25 ocular isolates, Mueller-Hinton broth with 2% lysed horse red blood cells, read-out: Median MIC): 16 µg/mL (≈ 17.4 µM)
- MIC ([2]; Streptococcus viridans, isolate 1—K1684, read-out: MIC): 8 µg/mL (≈ 8.72 µM)
- MIC ([2]; Streptococcus viridans, isolate 2—K1680, read-out: MIC): 64 µg/mL (≈ 69.8 µM)
- MIC ([2]; Streptococcus viridans, isolate 3—E546, read-out: MIC): 8 µg/mL (≈ 8.72 µM)
- MIC ([2]; Streptococcus viridans, isolate 4—E272, read-out: MIC): 16 µg/mL (≈ 17.4 µM)
- MIC ([2]; Streptococcus viridans, isolate 5—E506, read-out: MIC): > 64 µg/mL
- MIC ([2]; Streptococcus viridans, isolate 6—E496, read-out: MIC): 0.5 µg/mL (≈ 0.545 µM)
- MIC ([2]; Streptococcus viridans, isolate 7—E456, read-out: MIC): 16 µg/mL (≈ 17.4 µM)
- MIC ([2]; Streptococcus viridans, isolate 8—E432, read-out: MIC): 8 µg/mL (≈ 8.72 µM)
- MIC ([2]; Streptococcus viridans, isolate 9—E423, read-out: MIC): > 64 µg/mL
- MIC ([2]; Streptococcus viridans, isolate 10—E418, read-out: MIC): > 64 µg/mL
- MIC ([2]; Streptococcus viridans, isolate 11—E412, read-out: MIC): 8 µg/mL (≈ 8.72 µM)
- MIC ([2]; Streptococcus viridans, isolate 12—E409, read-out: MIC): 32 µg/mL (≈ 34.9 µM)
- MIC ([2]; Streptococcus viridans, isolate 13—E405, read-out: MIC): > 64 µg/mL
- MIC ([2]; Streptococcus viridans, isolate 14—E404, read-out: MIC): > 64 µg/mL
- MIC ([2]; Streptococcus viridans, isolate 15—E396, read-out: MIC): 32 µg/mL (≈ 34.9 µM)
- MIC ([2]; Streptococcus viridans, isolate 16—E262, read-out: MIC): 4 µg/mL (≈ 4.36 µM)
- MIC ([2]; Streptococcus viridans, isolate 17—E362, read-out: MIC): 16 µg/mL (≈ 17.4 µM)
- MIC ([2]; Streptococcus viridans, isolate 18—E359, read-out: MIC): 32 µg/mL (≈ 34.9 µM)
- MIC ([2]; Streptococcus viridans, isolate 19—E348, read-out: MIC): 16 µg/mL (≈ 17.4 µM)
- MIC ([2]; Streptococcus viridans, isolate 20—E344, read-out: MIC): 4 µg/mL (≈ 4.36 µM)
- MIC ([2]; Streptococcus viridans, isolate 21—E308, read-out: MIC): 4 µg/mL (≈ 4.36 µM)
- MIC ([2]; Streptococcus viridans, isolate 22—E294, read-out: MIC): 2 µg/mL (≈ 2.18 µM)
- MIC ([2]; Streptococcus viridans, isolate 23—E292, read-out: MIC): 0.5 µg/mL (≈ 0.545 µM)
- MIC ([2]; Streptococcus viridans, isolate 24—E285, read-out: MIC): 0.5 µg/mL (≈ 0.545 µM)
- MIC ([2]; Streptococcus viridans, isolate 25—E265, read-out: MIC): 8 µg/mL (≈ 8.72 µM)
- MIC ([2]; Streptococcus viridans, n=25 per group, read-out: Median MIC): 16 µg/mL (≈ 17.4 µM)
- MIC90 ([2]; Streptococcus viridans, 25 isolates, Summary of Results, >64 was Replaced with 128, read-out: MIC90): 128 µg/mL (≈ 140 µM)
- MIC50 ([2]; Streptococcus viridans, 25 isolates, Summary of Results, read-out: MIC50): 16 µg/mL (≈ 17.4 µM)
- MIC ([2]; Streptococcus viridans, 25 isolates, Summary of Results, read-out: Median MIC): 16 µg/mL (≈ 17.4 µM)
- MIC50 ([2]; n=25 per group): 16 µg/mL (≈ 17.4 µM)
- MIC90 ([2]; n=25 per group): 128 µg/mL (≈ 140 µM)
- Range of MICs ([2]; n=25 per group): 0.5 to 128 µg/mL
